Values joined by “and” are separate entries in the source; they are usually repeats but may differ in a detail not shown here. Equal entries are not always repeated.
Assays:
[1] = test system: Triticum aestivum (spring wheat, TRZAS); assay type: in vivo
Experimental: (§1) Seeds of the desired test plant species were planted in a 90:10% v/v (volume/volume) mixture of PRO-MIX® BX (Premier Tech Horticulture, Quakertown, PA, USA) and PROFILE® GREENS GRADE™ (Profile Products LLC, Buffalo Grove, IL, USA) planting mixture, which typically has a pH of 5.2 to 6.2 and an organic matter content of at least 50 percent, in plastic pots with a surface area of 103.2 square centimeters (cm^2). […] The plants were grown for 7-36 days (d) in a greenhouse with an approximate 14-hour (h) photo-period which was maintained at about 23° C. during the day and 22° C. during the night. Nutrients and water were added on a regular basis and supplemental lighting was provided with overhead metal halide 1000-Watt lamps as necessary. The plants were employed for testing when they reached the second or third true leaf stage.
(§2) Emulsifiable concentrates of each of each pyridine carboxylate herbicide (Compound A or Compound B) were prepared at 100 grams acid equivalent per liter (g ae/L). The emulsifiable concentrates also included a safener, cloquintocet-mexyl, at 120 grams active ingredient per liter (g ai/L), unless otherwise noted below. An aliquot of each emulsifiable concentrate was placed in a 25 mL glass vial and diluted with an aqueous mixture of 1.25% (v/v) ACTIROB® B esterified rapeseed oil (Bayer Crop Science, Research Triangle Park, NC, USA) or MSO® Concentrate with LECI-TECH® methylated soybean oil (Loveland Products, Loveland, CO, USA) to obtain concentrated stock solutions at the highest application rate for each herbicide, based upon a 12 milliliter (mL) application volume at a rate of 187 liters per hectare (L/ha). The concentrated stock solutions were further diluted with an aqueous mixture of 1.25% v/v ACTIROB® B or MSO® Concentrate with LECI-TECH® to obtain stock solutions at reduced application rates for each herbicide. Spray solutions of the herbicide combinations (Compound A or Compound B plus synthetic auxin herbicide or auxin transport inhibitor) were prepared by adding weighed amounts or aliquots of the synthetic auxin herbicide or auxin transport inhibitor to the stock solutions of Compound A or Compound B to form 12-mL spray solutions in two-way combinations.
(§3) The spray solutions were applied to the plant material with an overhead Mandel track sprayer equipped with 8002E nozzles calibrated to deliver 187 L/ha over an application area of 0.503 square meters (m^2) at a spray height of 18 inches (43 centimeters (cm)) above the average plant canopy. Control plants were sprayed in the same manner with the solvent blank. All pyridine carboxylate herbicide (component a) application rates are given as “g ae/ha” and all synthetic auxin herbicide or auxin transport inhibitor (component b) application rates are given as “g ai/ha.”
(§4) The treated plants and control plants were placed in a greenhouse as described above and watered by sub-irrigation to prevent wash-off of the test compounds. After 20-22 d, the condition of the test plants as compared with that of the control plants was determined visually and scored on a scale of 0 to 100 percent where 0 corresponds to no injury and 100 corresponds to complete kill.

[2] = test system: Hordeum vulgare (spring barley, HORVS); assay type: in vivo
Experimental: as §1, §2, §3, §4

[3] = test system: Cyanus segetum (cornflower, CENCY); assay: Greenhouse postemergence trial CENCY; assay type: in vivo; conditions: c1-3 Compound A 7.5/10/15; c4-5 Fluroxypyr-MHE 100/140; c6-8, c9-11 A 7.5/10/15 + Fluroxypyr-MHE 100, 140 g/ha
[4] = test system: Viola arvensis (field violet, VIOAR); assay: Greenhouse postemergence trial VIOAR; assay type: in vivo; conditions: c1-3 Compound A 7.5/10/15; c4-5 Fluroxypyr-MHE 100/140; c6-8, c9-11 A 7.5/10/15 + Fluroxypyr-MHE 100, 140 g/ha
Experimental: as §1, §2, §3, §4

[5] = test system: Galium aparine (cleavers, GALAP); assay: Greenhouse postemergence trial GALAP; assay type: in vivo; conditions: c1-3 Compound A 7.5/10/15; c4-5 Fluroxypyr-MHE 100/140; c6-8, c9-11 A 7.5/10/15 + Fluroxypyr-MHE 100, 140 g/ha
Experimental: as §1, §2, §3, §4

[6] = test system: Veronica hederifolia (ivyleaf speedwell, VERHE); assay: Greenhouse postemergence trial VERHE; assay type: in vivo; conditions: c1-3 Compound A 7.5/10/15; c4-5 Fluroxypyr-MHE 100/140; c6-8, c9-11 A 7.5/10/15 + Fluroxypyr-MHE 100, 140 g/ha
[7] = test system: Papaver rhoeas (corn poppy, PAPRH); assay: Greenhouse postemergence trial PAPRH; assay type: in vivo; conditions: c1-3 Compound A 7.5/10/15; c4-5 Fluroxypyr-MHE 100/140; c6-8, c9-11 A 7.5/10/15 + Fluroxypyr-MHE 100, 140 g/ha
[8] = test system: Veronica persica (bird's-eye speedwell, VERPE); assay: Greenhouse postemergence trial VERPE; assay type: in vivo; conditions: c1-3 Compound A 7.5/10/15; c4-5 Fluroxypyr-MHE 100/140; c6-8, c9-11 A 7.5/10/15 + Fluroxypyr-MHE 100, 140 g/ha
[9] = test system: Papaver rhoeas (corn poppy), herbicide-resistant (PAPRH-R); assay: Greenhouse postemergence trial PAPRH-R; assay type: in vivo; conditions: c1-3 Compound A 7.5/10/15; c4-5 Fluroxypyr-MHE 100/140; c6-8, c9-11 A 7.5/10/15 + Fluroxypyr-MHE 100, 140 g/ha
[10] = test system: Capsella bursa-pastoris (shepherd's purse, CAPBP); assay: Greenhouse postemergence trial CAPBP; assay type: in vivo; conditions: c1-3 Compound A 7.5/10/15; c4-5 Fluroxypyr-MHE 100/140; c6-8, c9-11 A 7.5/10/15 + Fluroxypyr-MHE 100, 140 g/ha
[11] = test system: Stellaria media (chickweed, STEME); assay: Greenhouse postemergence trial STEME; assay type: in vivo
[12] = test system: Anthemis arvensis (field chamomile, ANTAR); assay: Greenhouse postemergence trial ANTAR; assay type: in vivo; conditions: c1-3 Compound A 7.5/10/15; c4-5 Fluroxypyr-MHE 100/140; c6-8, c9-11 A 7.5/10/15 + Fluroxypyr-MHE 100, 140 g/ha
Experimental: as §1, §2, §3, §4

[13] = test system: Matricaria discoidea (pineapple weed, MATMT); assay: Greenhouse postemergence trial MATMT; assay type: in vivo; conditions: c1-3 Compound A 7.5/10/15; c4-5 Fluroxypyr-MHE 100/140; c6-8, c9-11 A 7.5/10/15 + Fluroxypyr-MHE 100, 140 g/ha
[14] = test system: Matricaria inodora (false chamomile, MATIN); assay: Greenhouse postemergence trial MATIN; assay type: in vivo; conditions: c1-3 Compound A 7.5/10/15; c4-5 Fluroxypyr-MHE 100/140; c6-8, c9-11 A 7.5/10/15 + Fluroxypyr-MHE 100, 140 g/ha
[15] = test system: Triticum aestivum (winter wheat, TRZAW); assay: Greenhouse postemergence crop phytotoxicity TRZAW; assay type: in vivo; conditions: c1-3 Compound A 7.5/10/15; c4-5 Fluroxypyr-MHE 100/140; c6-8, c9-11 A 7.5/10/15 + Fluroxypyr-MHE 100, 140 g/ha
Experimental: as §1, §2, §3, §4

[16] = test system: Hordeum vulgare (winter barley, HORVW); assay: Greenhouse postemergence crop phytotoxicity HORVW; assay type: in vivo; conditions: c1-3 Compound A 7.5/10/15; c4-5 Fluroxypyr-MHE 100/140; c6-8, c9-11 A 7.5/10/15 + Fluroxypyr-MHE 100, 140 g/ha
Experimental: as §1, §2, §3, §4

[17] = test system: Lamium purpureum (purple deadnettle, LAMPU); assay: Greenhouse postemergence trial LAMPU; conditions: c1-3 Compound A 7.5/10/15; c4-5 Fluroxypyr-MHE 100/140; c6-8, c9-11 A 7.5/10/15 + Fluroxypyr-MHE 100, 140 g/ha
[18] = test system: Viola tricolor (wild pansy, VIOTR); assay: Greenhouse postemergence trial VIOTR;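 further: greenhouse plants sprayed at second to third true leaf stage, injury rated visually after 20-22 d against solvent-blank sprayed controls, 0 meaning no injury and 100 complete kill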
[19] = test system: Brassica napus (winter rape, BRSNW); assay: Greenhouse postemergence trial BRSNW; assay type: in vivo; conditions: BRSNW; alone 280 g/ha
Experimental: as §1, §2, §3, §4

[20] = test system: Polygonum convolvulus (wild buckwheat, POLCO); assay: Greenhouse postemergence trial POLCO; assay type: in vivo
[21] = test system: Cirsium arvense (Canadian thistle, CIRAR); assay: Greenhouse postemergence trial CIRAR; assay type: in vivo
Experimental: as §1, §2, §3, §4

[22] = test system: Sinapis arvensis (wild mustard, SINAR); assay: Greenhouse postemergence trial SINAR; assay type: in vivo; conditions: SINAR; alone 280 g/ha
[23] = test system: Kochia scoparia (kochia, KCHSC); assay: Greenhouse postemergence trial KCHSC; assay type: in vivo
[24] = test system: Chenopodium album L. (common lambsquarters, CHEAL); assay: Greenhouse postemergence trial CHEAL; assay type: in vivo;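 further: greenhouse plants sprayed at second to third true leaf stage, injury rated by eye after 20-22 d versus solvent-blank sprayed controls, 0 = no injury, 100 = complete kill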
[25] = test system: Amaranthus retroflexus (pigweed, AMARE); assay: Greenhouse postemergence trial AMARE; assay type: in vivo;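 further: Greenhouse-grown plants sprayed at second to third true leaf stage, injury rated by eye after 20-22 d versus solvent-blank sprayed controls, 0 = no injury, 100 = complete kill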
[26] = test system: Matricaria chamomilla (wild chamomile, MATCH); assay: Greenhouse postemergence trial MATCH; assay type: in vivo; conditions: MATCH; alone 280 g/ha;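 further: greenhouse plants sprayed at second to third true leaf stage, injury rated by eye 20-22 d later versus solvent-blank controls on 0–100 scale, 0 no injury, 100 complete kill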
[27] = test system: Rumex obtusifolius (broad-leaf dock, RUMOB); assay: Greenhouse postemergence trial RUMOB; assay type: in vivo; conditions: MCPA EHE 280 g/ha (Table 41)
Experimental: as §1, §2, §3, §4

[28] = test system: Abutilon theophrasti (velvetleaf, ABUTH); assay: Greenhouse postemergence trial ABUTH; assay type: in vivo; conditions: MCPA EHE 280 g/ha (Table 41)
Experimental: as §1, §2, §3, §4

[29] = test system: Glycine max (volunteer soybean, GLXMA); assay: Greenhouse postemergence trial GLXMA; assay type: in vivo; conditions: MCPA EHE 280 g/ha (Table 41)
Experimental: as §1, §2, §3, §4

[30] = test system: Helianthus annuus (common sunflower, HELAN); assay: Greenhouse postemergence trial HELAN; assay type: in vivo; conditions: MCPA EHE 280 g/ha (Table 41)
Experimental: as §1, §2, §3, §4

[31] = test system: Ipomoea hederacea (ivyleaf morningglory, IPOHE); assay: Greenhouse postemergence trial IPOHE; assay type: in vivo; conditions: MCPA EHE 280 g/ha (Table 41)
Experimental: as §1, §2, §3, §4

[32] = c1-3 Compound A 7.5/10/15, c4-5 Fluroxypyr-MHE 100/140, c6-8, c9-11 A 7.5/10/15 + Fluroxypyr-MHE 100, 140 g/ha

CCCCCCC(C)OC(=O)COc1nc(F)c(Cl)c(N)c1Cl (stereo not shown) [Fluroxypyr-MHE, fluroxypyr-meptyl, reference compound]
% visual injury (crop phytotoxicity) [1, 32]: 0%
% visual injury (crop phytotoxicity) [2, 32]: 0%
% visual injury [3]: 60% and 95%
% visual injury [4]: 20%
% visual injury [5]: 85% and 95%
% visual injury [6]: 30% and 60%
% visual injury [7]: 10%
% visual injury [8]: 70% and 85%
% visual injury [9]: 10%
% visual injury [10]: 0%
% visual injury [11, 32]: 70% and 75%
% visual injury [12]: 30% and 35%
% visual injury [13]: 0%
% visual injury [14]: 10% and 15%
% visual injury (crop phytotoxicity) [15]: 0%
% visual injury (crop phytotoxicity) [16]: 0%
% visual injury [17]: 60% and 65%
% visual injury [18, 32]: 50%

CCCCC(CC)COC(=O)COc1ccc(Cl)cc1C (stereo not shown) [MCPA EHE]
% visual injury (Obs) [19]: 60%
POLCO % visual injury Obs ([20]; MCPA EHE 280 g/ha (Table 41)): 0%
% visual injury (Obs) ([20]; POLCO, alone 280 g/ha): 10%
% visual injury (Obs) ([21]; CIRAR, alone 280 g/ha): 20%
CIRAR % visual injury Obs ([21]; MCPA EHE 280 g/ha (Table 41)): 23%
% visual injury (Obs) [22]: 80%
% visual injury (Obs) ([23]; KCHSC, alone 280 g/ha): 10%
KCHSC % visual injury Obs ([23]; MCPA EHE 280 g/ha (Table 41)): 0%
% visual injury (Obs) ([24]; CHEAL, alone 280 g/ha): 70%
CHEAL % visual injury Obs ([24]; MCPA EHE 280 g/ha (Table 41)): 73%
% visual injury (Obs) ([25]; AMARE, alone 280 g/ha): 50%
AMARE % visual injury Obs ([25]; MCPA EHE 280 g/ha (Table 41)): 30%
% visual injury (Obs) [26]: 20%
% visual injury (Obs) ([1]; TRZAS, alone 280 g/ha): 0%
% visual injury (Obs) ([2]; HORVS, alone 280 g/ha): 0%
STEME % visual injury Obs ([11]; MCPA EHE 280 g/ha (Table 41)): 0%
RUMOB % visual injury Obs [27]: 25%
ABUTH % visual injury Obs [28]: 5%
GLXMA % visual injury Obs [29]: 30%
HELAN % visual injury Obs [30]: 90%
IPOHE % visual injury Obs [31]: 78%
VIOTR % visual injury Obs ([18]; MCPA EHE 280 g/ha (Table 41)): 0%

Reference: patent US12568967B2, “Compositions comprising pyridine carboxylate herbicides with synthetic auxin herbicides or auxin transport inhibitors” (priority 2018, dated 2026)
